Data on one compound can be found in patent publication US6630477B1, “Therapeutic nucleoside compound” (SmithKline Beecham Corporation, priority 1999, dated 2003).

The subject of data set [1] is Hepatitis B virus. As to the kind of experiment: Hepatitis B Virus Activity (method of Jansen et al. 1993). The conditions noted are these: n=2, read-out: IC50 against Hepatitis B virus. The data set is classed as cell-based. The method, then:
(§1) The activity of compounds against Hepatitis B Virus was assessed as described in Jansen, R. et al., Antimicrobial Agents and Chemotherapy, Vol. 37, No. 3, pp. 441-447, 1993.

Data set [2] in a line: Cytotoxicity (reported with the Hepatitis B virus activity test). The data set is classed as cell-based. The method, then: as §1

As a reminder, the IC50 is the point on the concentration scale where inhibition reaches its midpoint. As a reminder, the melting point is the temperature, or range, at which the solid turns liquid. `Nc1ncnc2c1ncn2[C@@H]1C=C[C@H](CO)C1` [(+)-(1R,4S)-4-(6-Amino-9H-purin-9-yl)-2-cyclopentene-1-methanol] displayed a melting point of 195 to 200 °C. The IC50 in data set [1] came out at 1000 nM. In data set [2], this compound registered a Cytotoxicity above 200 µM.
